Reference: patent publication US20240279278A1, “NMU RECEPTOR 2 AGONISTS” (Boehringer Ingelheim International GmbH, priority 2023, published 2024)
pEC50, pKi: −log10 of the molar value. Values after ≈ are worked out from the molar mass of the structure shown. Residues, ends and D or L forms follow the SMILES beside them.

How the values were obtained:
physchem = assay type: physicochemical
Procedure, shortened: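 Peptide TFA salts were shaken at a nominal 10 mg/mL in 0.1 M phosphate buffer, pH 6 to 8, for 2 h at room temperature and then filtered. Reversed-phase HPLC peak area was compared with a 1 mg/mL control in buffer or DMSO to give solubility. The pH of each sample was recorded.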

human NMUR1 receptor = biological target: T1, human NMUR1 receptor (Homo sapiens, UniProt Q9HB89); test: Radioligand binding competition assay (RLB), human NMUR1 receptor binding (SPA, [125I]-Neuromedin U-25); conditions: CHO-K1 hNMUR1 cell membranes, 4 hours at RT
T1 construct: host or cells: CHO-K1
T1 sequence (Q9HB89 24-426 limits assumed): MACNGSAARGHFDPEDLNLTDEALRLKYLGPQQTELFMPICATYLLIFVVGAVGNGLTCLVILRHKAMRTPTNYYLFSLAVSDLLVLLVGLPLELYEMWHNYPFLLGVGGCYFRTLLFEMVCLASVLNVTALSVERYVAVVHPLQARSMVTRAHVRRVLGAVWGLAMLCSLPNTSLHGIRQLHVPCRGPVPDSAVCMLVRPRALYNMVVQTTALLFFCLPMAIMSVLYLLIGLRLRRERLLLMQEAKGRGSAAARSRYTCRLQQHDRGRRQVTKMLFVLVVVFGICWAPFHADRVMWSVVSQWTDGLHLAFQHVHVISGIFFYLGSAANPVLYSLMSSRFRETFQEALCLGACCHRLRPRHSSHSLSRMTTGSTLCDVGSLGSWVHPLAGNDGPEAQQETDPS
Procedure, shortened: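 SPA competition binding on CHO-K1 membranes stably expressing human NMUR1 (about 1.0 μg protein) on WGA-PVT beads, using about 30 pM [125I]-Neuromedin U-25. Incubation was 4 h at RT in 25 mM Hepes pH 7.0, 5 mM MgCl2, 1 mM CaCl2, saponin and 0.1% BSA. Non-specific binding was defined by 100 nM unlabeled hNMU-25; values assume one-site reversible equilibrium binding.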

human NMUR2 receptor = human NMUR2 receptor (Homo sapiens, UniProt Q9GZQ4); test: IP1 Gq HTRF assay, activation of human NMUR2 in buffer; assay type: cell-based; design: expressed in transfected cells; host or cells: CHO-K1; conditions: CHO-K1 cells expressing human NMUR2, stimulation buffer with 0.1% BSA; read-out: EC50 (hNMUR2) buffer
Procedure, shortened: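 IP-One HTRF competition (665/620 nm ratio) read after 1 h agonist exposure at 37 °C in pH 7.4 HEPES/HBSS stimulation buffer containing 50 mM LiCl, 0.1% BSA, 1% DMSO. Cells: CHO-K1 stably expressing human NMUR2 or NMUR1. EC50 by 4-parameter nonlinear regression of 8-point curves.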

human NMUR2 receptor, sequence (Q9GZQ4 whole entry): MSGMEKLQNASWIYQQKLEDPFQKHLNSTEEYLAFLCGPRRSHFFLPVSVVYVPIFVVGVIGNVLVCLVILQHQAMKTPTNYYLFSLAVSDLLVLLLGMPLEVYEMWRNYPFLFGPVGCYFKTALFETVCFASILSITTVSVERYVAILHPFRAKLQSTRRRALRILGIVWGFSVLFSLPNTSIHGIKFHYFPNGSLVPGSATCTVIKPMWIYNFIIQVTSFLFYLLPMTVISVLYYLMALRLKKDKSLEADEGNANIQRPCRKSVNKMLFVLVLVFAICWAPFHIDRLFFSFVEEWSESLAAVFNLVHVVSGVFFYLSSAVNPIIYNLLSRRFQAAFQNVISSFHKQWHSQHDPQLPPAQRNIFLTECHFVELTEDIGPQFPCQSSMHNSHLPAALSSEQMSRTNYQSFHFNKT

Row | solubility at 2 h (physchem; pH 7.2) | Structure (SMILES) | pKi (human NMUR1 receptor) | pEC50 (human NMUR2 receptor) | solubility at 2 h (physchem; pH 7.3)
1 | 8800 µg/mL (≈ 3280 µM) | CCCC[C@H](NC(=O)[C@H](CC(C)C)N(C)C(=O)[C@H](Cc1ccccc1)NC(=O)[C@H](Cc1ccc(O)cc1)NC(=O)CN1CCN(CCNC(=O)CN(C)C(=O)CN(C)C(=O)CN(C)C(=O)CN(C)C(=O)CN(C)C(=O)CN(C)C(=O)CN(C)C(=O)CN(C)C(=O)CN(C)C(=O)CN(C)C(=O)CN(C)C(=O)CN(C)C(=O)CC[C@H](NC(=O)CC[C@H](NC(=O)CC[C@H](NC(=O)CCCCCCCCCCCCCCCCC(=O)O)C(=O)O)C(=O)O)C(=O)O)CC1)C(=O)N[C@@H](CCN)C(=O)N1CCC[C@H]1C(=O)N[C@@H](CCCNC(=N)N)C(=O)NCC(N)=O [Compound 27, C18DA-gGlu3-Sar12-AEPipAc-Tyr-Phe-NMeLeu-Nle-Dbu-Pro-Arg-Gly-NH2] | < 5.00 | 8.92 | 
2 |  | CCCC[C@H](NC(=O)[C@H](CC(C)C)N(C)C(=O)[C@H](Cc1ccccc1)NC(=O)[C@H](Cc1ccc(O)cc1)NC(=O)CN1CCN(CCNC(=O)CN(C)C(=O)CN(C)C(=O)CN(C)C(=O)CN(C)C(=O)CN(C)C(=O)CN(C)C(=O)CN(C)C(=O)CN(C)C(=O)CN(C)C(=O)CN(C)C(=O)CN(C)C(=O)CN(C)C(=O)CN(C)C(=O)CN(C)C(=O)CN(C)C(=O)CC[C@H](NC(=O)CC[C@H](NC(=O)CC[C@H](NC(=O)CCCCCCCCCCCCCCCCC(=O)O)C(=O)O)C(=O)O)C(=O)O)CC1)C(=O)N[C@@H](CCCN)C(=O)N1CCC[C@H]1C(=O)N[C@@H](CCCNC(=N)N)C(=O)NCC(N)=O [Compound 21, C18DA-gGlu3-Sar15-AEPipAc-Tyr-Phe-NMeLeu-Nle-Orn-Pro-Arg-Gly-NH2] (HELM PEPTIDE1{[O=C(O)CCCCCCCCCCCCCCCCC(=O)[*:2]].[gGlu].[gGlu].[gGlu].[Sar].[Sar].[Sar].[Sar].[Sar].[Sar].[Sar].[Sar].[Sar].[Sar].[Sar].[Sar].[Sar].[Sar].[Sar].[O=C(CN1CCN(CCN[*:1])CC1)[*:2]].Y.F.[meL].[Nle].[Orn].P.R.G.[am]}$$$$V2.0) | < 5.00 | 8.59 | 7500 µg/mL (≈ 2580 µM)
